Source: patent US10759843B2, “Method and pharmaceutical composition for use in the treatment of cancer” (priority 2012, dated 2020)
Entries after “also recorded” stand apart in the source; their conditions may differ. No end group written: not given here.

Assays:
[1] = tested on: B cells from CLL patients; assay: Free Ca2+ mobilization, Fura-2 AM, Till photonics; format: cell-based, human; details: Fura-2 AM (FIG. 4)
Method: Cells, adhered in Polylysine coated glass-bottom Petri dishes, were loaded with Fura-2 AM (1 μM/30 min/37° C.). Cells were then excited by wavelengths of 340 and 380 nm and fluorescence emission of several cells was simultaneously recorded at 510 nm at a frequency of 1 Hz using a dual excitation fluorometric imaging system (TILL-Photonics) controlled by TILL-Vision software. Signals were computed into relative ratio units of the fluorescence intensity of the different wavelengths (340/380 nm). Individual fluorescence values were then analyzed with Origin software to normalize the fluorescence with the first value according to the equation (F/F0)−1, where ‘F’ is the fluorescence at specific time point and ‘F0’ is the fluorescence at time 0.

[2] = tested on: Lymphoplasmacytic lymphoma; assay: PCD induction in primary cancer cells; format: cell-based
Follicular lymphoma = assay: PCD induction in primary cancer cells; format: cell-based
[3] = tested on: B cells isolated from CLL patients; assay: PCD (phosphatidylserine exposure, Annexin-V-FITC, flow cytometry) in B cells from CLL patients; format: cell-based, human
Source text: (§1) After authorized consent forms fresh blood samples will be collected from CLL patients diagnosed according to classical morphological and immunophenotypic criteria at Pitié-Salpêtrière Hospital (Service d'Hématologie Biologique). Normal B lymphocytes will be obtained from EFS (Etablisement Français du Sang). The Institutional Ethics Committee at Pitie-Salpetriere Hospital approved the present study. Mononuclear cells were purified from blood samples using a standard Ficoll-Hypaque gradient, and B cells were positively or negatively selected by magnetic beads coupled to anti-CD19 monoclonal antibody (positive selection) or to anti-CD16, CD3, and CD14 monoclonal antibodies (negative depletion) (Miltenyi Biotech). No changes were found in the cell death response of positively or negatively selected cells. Purified B-lymphocytes were cultured in complete medium (RPMI 1640 medium supplemented with 10% fetal calf serum, 2 mM L-glutamine, and 100 U/ml penicillin-streptomycin). Unless specified, reagents were from Sigma-Aldrich.
To induce cell death B-lymphocytes were cultured 1 h with the TSP-1 derived peptide 4N1K (300 μM; sequence KRFYVVMWKK, SEQ ID NO:1), the negative control peptide 4NGG (300 μM; sequence KRFYGGMWKK, SEQ ID NO:2), the newly developed peptide PKHB1 (150 μM; sequence (D)K-R-F-Y-[…]-M-W-(D)K) (formula I) or an anti-CD47 mAb (in soluble conditions or in immobilized precoated plates; 5 μg/ml; clone B6H12). Alternatively, B-cells were pre-treated for 30 min before the induction of cell death with the calcium chelator BAPTA-AM (20 μM), the caspase-inhibitor Z-VAD.fmk (50 μM).
(§2) We used Annexin V-FITC (BD Biosciences) for the assessment of phosphatidylserine (PS) exposure. Data analysis was carried out in a FACSCanto II (BD Biosciences) on the total cell population (10,000 cells). Data were analyzed using FlowJo software (TreeStar).

Prostate tumor cells = assay: PCD induction in primary cancer cells; format: cell-based
[4] = tested on: Diffuse large B cell lymphoma; assay: PCD induction in primary cancer cells; format: cell-based
Hepatocellular carcinoma = assay: PCD induction in primary cancer cells; format: cell-based
Breast carcinoma = assay: PCD induction in primary cancer cells; format: cell-based
Glioblastoma = assay: PCD induction in primary cancer cells; format: cell-based
Ovarian carcinoma = assay: PCD induction in primary cancer cells; format: cell-based
normal B-lymphocytes = assay: PCD (Annexin-V-FITC) in normal B-lymphocytes; format: cell-based, human
Source text: as §1, with “Sigma-Aldrich. […]” for “Sigma-Aldrich.”
We used Annexin V-FITC (BD Biosciences) for the assessment of phosphatidylserine (PS) exposure. […] Data were analyzed using FlowJo software (TreeStar).

Colon carcinoma = assay: PCD induction in primary cancer cells; format: cell-based
Glioma = assay: PCD induction in primary cancer cells; format: cell-based
[5] = tested on: Hairy cell leucemia (HCL); assay: PCD induction in primary cancer cells; format: cell-based
HBL-100 = assay: PCD induction in cancer cell lines, Annexin V labeling; format: cell-based; details: HBL-100 (Breast epithelial cells with transformed morphology), 400 μM 4N1K, 1 h
Method: as §2

MCF-7 = assay: as above; format: cell-based; details: MCF-7 (Breast adenocarcinoma), 400 μM 4N1K, 1 h
Method: as §2

LNCAP = assay: as above; format: cell-based; details: LNCAP (Prostate cancer), 400 μM 4N1K, 1 h
Method: as §2

HELA = assay: as above; format: cell-based; details: HELA (Cervical cancer), 400 μM 4N1K, 1 h
Method: as §2

A549 = assay: as above; format: cell-based; details: A549 (Lung carcinoma), 400 μM 4N1K, 1 h
Method: as §2

U937 = assay: as above; format: cell-based; details: U937 (Diffuse histiocytic lymphoma), 400 μM 4N1K, 1 h
Method: as §2

RPMI 8866 = assay: as above; format: cell-based; details: RPMI 8866 (B lymphocytic cell line), 400 μM 4N1K, 1 h
Method: as §2

MEC-1 = assay: as above; format: cell-based; details: MEC-1 (Chronic Lymphocytic Leukemia), 400 μM 4N1K, 1 h
Method: as §2

RAJI = assay: as above; format: cell-based; details: RAJI (Burkitt's lymphoma), 400 μM 4N1K, 1 h
Method: as §2

JM-1 = assay: as above; format: cell-based; details: JM-1 (Immunoblastic B cell lymphoma), 400 μM 4N1K, 1 h
Method: as §2

RPMI 8226 = assay: as above; format: cell-based; details: RPMI 8226 (B lymphocytic cell line), 400 μM 4N1K, 1 h
Method: as §2

JURKAT = assay: as above; format: cell-based; details: JURKAT (Acute T cell leukemia), 400 μM 4N1K, 1 h
Method: as §2

RAMOS = assay: as above; format: cell-based; details: RAMOS (Burkitt's lymphoma), 400 μM 4N1K, 1 h
Method: as §2

OV10 = assay: as above; format: cell-based; details: OV10 (Ovarian Carcinoma), 400 μM 4N1K, 1 h
Method: as §2

MDA-MB-231 = assay: as above; format: cell-based; details: MDA-MB-231 (Adenocarcinoma), 400 μM 4N1K, 1 h
Method: as §2

AU-565 = assay: as above; format: cell-based; details: AU-565 (Breast adenocarcinoma), 400 μM 4N1K, 1 h
Method: as §2

CEM = assay: as above; format: cell-based; details: CEM (Acute lymphoblastic leukemia), 400 μM 4N1K, 1 h
Method: as §2

cancer cell lines = assay: PCD induction in cancer cell lines (whole panel of Table 1); format: cell-based; details: cancer cell lines (Table 1)
Method: as §2

Bladder carcinoma = assay: PCD induction in primary cancer cells; format: cell-based
primary cancer cells = assay: PCD induction in primary cancer cells (whole panel of Table 2); format: cell-based; details: primary cancer cells (Table 2)
Mantle cell lymphoma = assay: PCD induction in primary cancer cells; format: cell-based
[6] = tested on: Chronic Lymphocytic Leukemia; assay: PCD induction in primary cancer cells; format: cell-based
Acute T cell leukemia = assay: PCD induction in primary cancer cells; format: cell-based
Marginal B cell lymphoma = assay: PCD induction in primary cancer cells; format: cell-based

KRFYVVMWKK [4N1K, K-R-F-Y-V-V-M-W-K-K] was tested, and the “intracellular free Ca2+ mobilization” value [1] was “does not come back to basal level; also recorded: potent and sustained increase of calcium mobilization”, the “Cell death induction via CD47” value [2] was “+ (more than 35% of programmed cell death induction via CD47 receptor)” and the “Cell death induction via CD47” value (Follicular lymphoma) was “+ (more than 35% of programmed cell death induction via CD47 receptor)”. The “difference in PCD response between CLL cells with functional and non-functional TP53” value ([3]; 300 μM, 1 h (FIG. 2B)) was “Not significant difference”, the “cell death in CLL cells” value ([3]; 300 μM, 1 h, Annexin-V-FITC, cohort of 14 CLL patients (FIG. 6B)) was “about 45%” and the “difference in PCD between CLL cells treated or not with caspase inhibitor ZVAD” value ([3]; 300 μM, 1 h, z-VAD.fmk 50 μM pre-incubation (FIG. 2A)) was “Not significant difference”. The “effect of pre-treatment with calcium chelator BAPTA-AM on peptide-mediated PCD” value ([3]; BAPTA-AM 20 μM before PCD induction (FIG. 5, FIG. 6D)) was “abrogates”, the “PCD induction in CLL primary cells (in words)” value ([3]; soluble peptide or mAb (FIG. 1)) was “induces caspase-independent PCD” and the “Cell death induction via CD47” value (Prostate tumor cells) was “+ (more than 35% of programmed cell death induction via CD47 receptor)”. For the same sequence, the “Cell death induction via CD47” value [4] was “+ (more than 35% of programmed cell death induction via CD47 receptor)”, the “Cell death induction via CD47” value (Hepatocellular carcinoma) was “+ (more than 35% of programmed cell death induction via CD47 receptor)” and the “Cell death induction via CD47” value (Breast carcinoma) was “+ (more than 35% of programmed cell death induction via CD47 receptor)”. The “Cell death induction via CD47” value (Glioblastoma) was “+ (more than 35% of programmed cell death induction via CD47 receptor)”, the “Cell death induction via CD47” value (Ovarian carcinoma) was “+ (more than 35% of programmed cell death induction via CD47 receptor)” and the “cytotoxicity in normal B-lymphocytes” value (normal B-lymphocytes) was “not in normal B-lymphocytes”. For the same sequence, the “Cell death induction via CD47” value (Colon carcinoma) was “+ (more than 35% of programmed cell death induction via CD47 receptor)”, the “Cell death induction via CD47” value (Glioma) was “+ (more than 35% of programmed cell death induction via CD47 receptor)” and the “Cell death induction via CD47” value [5] was “+ (more than 35% of programmed cell death induction via CD47 receptor)”. The “Cell death induction via CD47” value (HBL-100) was “+ (more than 35% of cell death induction, assessed by Annexin V labeling, after 1 h of stimulation with 400 μM of 4N1K (means of six independent experiments))”, the “Cell death induction via CD47” value (MCF-7) was “+ (more than 35% of cell death induction, assessed by Annexin V labeling, after 1 h of stimulation with 400 μM of 4N1K (means of six independent experiments))” and the “Cell death induction via CD47” value (LNCAP) was “+ (more than 35% of cell death induction, assessed by Annexin V labeling, after 1 h of stimulation with 400 μM of 4N1K (means of six independent experiments))”. For the same sequence, the “Cell death induction via CD47” value (HELA) was “+ (more than 35% of cell death induction, assessed by Annexin V labeling, after 1 h of stimulation with 400 μM of 4N1K (means of six independent experiments))”, the “Cell death induction via CD47” value (A549) was “+ (more than 35% of cell death induction, assessed by Annexin V labeling, after 1 h of stimulation with 400 μM of 4N1K (means of six independent experiments))” and the “Cell death induction via CD47” value (U937) was “+ (more than 35% of cell death induction, assessed by Annexin V labeling, after 1 h of stimulation with 400 μM of 4N1K (means of six independent experiments))”. The “Cell death induction via CD47” value (RPMI 8866) was “+ (more than 35% of cell death induction, assessed by Annexin V labeling, after 1 h of stimulation with 400 μM of 4N1K (means of six independent experiments))”, the “Cell death induction via CD47” value (MEC-1) was “+ (more than 35% of cell death induction, assessed by Annexin V labeling, after 1 h of stimulation with 400 μM of 4N1K (means of six independent experiments))” and the “Cell death induction via CD47” value (RAJI) was “+ (more than 35% of cell death induction, assessed by Annexin V labeling, after 1 h of stimulation with 400 μM of 4N1K (means of six independent experiments))”. For the same sequence, the “Cell death induction via CD47” value (JM-1) was “+ (more than 35% of cell death induction, assessed by Annexin V labeling, after 1 h of stimulation with 400 μM of 4N1K (means of six independent experiments))”, the “Cell death induction via CD47” value (RPMI 8226) was “+ (more than 35% of cell death induction, assessed by Annexin V labeling, after 1 h of stimulation with 400 μM of 4N1K (means of six independent experiments))” and the “Cell death induction via CD47” value (JURKAT) was “+ (more than 35% of cell death induction, assessed by Annexin V labeling, after 1 h of stimulation with 400 μM of 4N1K (means of six independent experiments))”. For the same sequence, the “Cell death induction via CD47” value (RAMOS) was “+ (more than 35% of cell death induction, assessed by Annexin V labeling, after 1 h of stimulation with 400 μM of 4N1K (means of six independent experiments))”, the “Cell death induction via CD47” value (OV10) was “+ (more than 35% of cell death induction, assessed by Annexin V labeling, after 1 h of stimulation with 400 μM of 4N1K (means of six independent experiments))” and the “Cell death induction via CD47” value (MDA-MB-231) was “+ (more than 35% of cell death induction, assessed by Annexin V labeling, after 1 h of stimulation with 400 μM of 4N1K (means of six independent experiments))”. The “Cell death induction via CD47” value (AU-565) was “+ (more than 35% of cell death induction, assessed by Annexin V labeling, after 1 h of stimulation with 400 μM of 4N1K (means of six independent experiments))”, the “Cell death induction via CD47” value (CEM) was “+ (more than 35% of cell death induction, assessed by Annexin V labeling, after 1 h of stimulation with 400 μM of 4N1K (means of six independent experiments))” and the cell death induction (cancer cell lines) was “more than 35%”. The “Cell death induction via CD47” value (Bladder carcinoma) was “+ (more than 35% of programmed cell death induction via CD47 receptor)”, the cell death induction (primary cancer cells) was “more than 35%” and the “Cell death induction via CD47” value (Mantle cell lymphoma) was “+ (more than 35% of programmed cell death induction via CD47 receptor)”. For the same sequence, the “Cell death induction via CD47” value [6] was “+ (more than 35% of programmed cell death induction via CD47 receptor)”, the “Cell death induction via CD47” value (Acute T cell leukemia) was “+ (more than 35% of programmed cell death induction via CD47 receptor)” and the “Cell death induction via CD47” value (Marginal B cell lymphoma) was “+ (more than 35% of programmed cell death induction via CD47 receptor)”.
